Article PMC4456386, “Ligand Recognition of the Major Birch Pollen Allergen Bet v 1 is Isoform Dependent” (PLoS ONE, 2015)
“And” between values parts separate entries of the source, which are not always exact repeats. Equal entries are not always repeated. “Also recorded” adds a separate entry of the source.

What was measured:
[1] = biological target: T1, Bet v 1a (Betula pendula, UniProt P15494); assay: 1H-15N HSQC NMR titration (chemical shift perturbation) of 15N-Bet v 1a; format: binding, Betula verrucosa; conditions: for Kd per residue / Kd / Dissociation constant Kd (averaged Kd app): Bet v 1a; for binding to Bet v 1a (in words): 1H-15N HSQC titration
T1 construct: made in house
Description: (§1) All NMR experiments were performed at 298 K in 50 mM sodium phosphate buffer, 50 mM NaCl, pH 7.0, 10% deuterium oxide (^2H2O) with ^15N-uniformly labelled Bet v 1 isoforms using Bruker Avance 700 MHz and Avance 800 MHz spectrometers with cryogenically cooled triple-resonance probes equipped with pulsed field-gradient capabilities. NMR data were processed using NMRPipe and visualized with NMRViewJ [89]. Three-dimensional ^15N-edited NOESY (nuclear Overhauser enhancement spectroscopy, mixing times 120 ms) experiments to assign chemical shifts were obtained with 500 μM ^15N-labeled samples of Bet v 1 isoform d or m and yielded 91% of assigned residues for Bet v 1d and 89% for Bet v 1m. The sequence-specific assignments of the amide resonances of Bet v 1a are reported elsewhere.
(§2) Interaction of Q3OS with the Bet v 1 isoforms was measured by incubating 700 μM Q3OS with 50 μM of each ^15N-labeled Bet v 1 isoform in 50 mM sodium phosphate, 50 mM NaCl buffer, pH 7.0.
(§3) For titration experiments all other flavonoids were dissolved in deuterated DMSO, while glucose and galactose were dissolved in 50 mM sodium phosphate buffer, 50 mM NaCl, pH 7.0, 10% deuterium oxide and titrated stepwise to a final excess of up to 17-fold to protein samples (ca. 100 μM). […] CSPs for ligand binding were calculated based on Eq (2): […] (2) ΔδHN and ΔδN, chemical shift differences of amide proton and nitrogen resonances, respectively, in ppm.
(§4) K d values for flavonoid binding were determined with NMRViewJ [89]. All analysable amino acid residues that were unaffected by DMSO addition and showing CSPs > 0.08 ppm were fitted to a quadratic binding curve with default settings, and an average K d app was calculated (Table 1 and S1–S3 Tables). The CSPs of all residues showing CSPs > 0.04 ppm were mapped either on models of Bet v 1d and Bet v 1m or on the Bet v 1a structure (pdb code 1BV1, [29]).

[2] = biological target: T2, Bet v 1m (Betula pendula, UniProt P43186); assay: UV/VIS equilibrium titration of flavonoids with Bet v 1m; format: binding, Betula verrucosa; conditions: for Absorption maxima, Bet v 1m:Flavonoid: complex with Bet v 1m
T2 construct: made in house
Description: (§5) All flavonoids and Bet v 1 isoforms were dissolved in 50 mM sodium phosphate, 50 mM NaCl, 10% (v/v) DMSO, pH 7.0, to a final concentration of 10 to 20 μM in 500 μl. Absorption spectra from 200–800 nm were recorded at 25°C in a 1 cm quartz cuvette (Hellma GmbH) using a 8453 UV-visible spectrophotometer (Agilent).
(§6) To further characterize flavonoid binding to Bet v 1, titration experiments were performed by adding small amounts of concentrated Bet v 1 isoform a, d or m to different flavonoids. Changes of flavonoid absorption occurring at specific wavelengths were plotted against the protein concentration. Prior to curve-fitting, absorbance data were corrected for dilution. If possible, the equilibrium dissociation constant (K d) was determined by non-linear regression analysis of the data with GraFit-5 (Version 5.0, Erithacus Software, UK) using the following Eq (1): ΔA=ΔAmax/2Q[(B+Q+Kd)-((B+Q+Kd)^2-[…])] (1) ΔA max, maximum change in absorbance at specific wavelengths; B, Bet v 1a concentration; Q, total flavonoid concentration.

[3] = biological target: T3, Bet v 1d (Betula pendula, UniProt P43177); assay: UV/VIS equilibrium titration of flavonoids with Bet v 1d; format: binding, Betula verrucosa; conditions: for Absorption maxima, Bet v 1d:Flavonoid: complex with Bet v 1d
T3 construct: made in house
Description: as §5, §6

[4] = biological target: T2, Bet v 1m; assay: 1H-15N HSQC NMR titration (chemical shift perturbation) of 15N-Bet v 1m; format: binding, Betula verrucosa
Description: as §1, §2, §3, §4

[5] = UV/VIS absorption spectra of unbound flavonoids; format: physicochemical; conditions: pH 7.0
Description: as §5

[6] = biological target: T1, Bet v 1a; assay: UV/VIS equilibrium titration of flavonoids with Bet v 1a; format: binding, Betula verrucosa; conditions: for Kd: Dissociation constant Kd, UV/VIS titration, 298 K, pH 7.0, 10% DMSO, error = standard error of fit; for Absorption maxima, Bet v 1a:Flavonoid: complex with Bet v 1a
Description: as §5, §6

[7] = biological target: T3, Bet v 1d; assay: 1H-15N HSQC NMR titration (chemical shift perturbation) of 15N-Bet v 1d; format: binding, Betula verrucosa; conditions: for binding to Bet v 1d (in words): 1H-15N HSQC titration, up to 15-fold excess
Description: as §1, §2, §3, §4

[8] = biological target: T2, Bet v 1m; assay: 1H-15N HSQC NMR titration (chemical shift perturbation) of 15N-Bet v 1m; format: binding, Betula verrucosa; conditions: 1H-15N HSQC titration, up to 15-fold excess
[9] = system: serum IgE binding to surface-coated Bet v 1a, Bet v 1d and Bet v 1m; assay: Indirect ELISA for IgE binding to Bet v 1 isoforms; parameters: species or system human; conditions: 5-fold molar excess of ligand; isoforms a, d, m
Description: Fifteen sera of birch pollen-allergic subjects were collected, tested, and pooled according to the guideline of the European Medicines Agency (EMEA/CHMP/BWP/304831/2007). The serum pool is routinely used for batch-release testing of birch pollen-derived allergenic products at the Paul-Ehrlich-Institut. The same serum pool was used for both, ELISA and mediator release assays.
For IgE-ELISA experiments, Maxisorp plates (Nunc via Fisher Scientific) were coated overnight at room temperature with 50 ng/100 μl recombinant Bet v 1 isoforms a, d, or m with a 5-fold molar excess of quercetin-3-O-sophorose, rutin, quercetin, quercetin-3-O-glucoside, quercetin-3-O-galactoside, or sophorose, respectively, in phosphate-buffered saline (PBS). After blocking with PBS containing 2% bovine serum albumin (BSA) these plates and an uncoated control were incubated with a dilution series of a serum pool of birch-pollen allergic subjects for 1 h at room temperature with PBS containing 0.05% Tween 20 and 0.1% BSA. Allergen-specific human IgE was detected with a horseradish peroxidase-conjugated mouse anti-human IgE antibody (Clone B3102E8, Southern biotech via Biozol, Eching, Germany) diluted 1:1000. 3,3′,5,5′-tetramethylbenzidine (Roth, Karlsruhe) was used as substrate for horseradish peroxidase, and the absorbance at 450 nm was measured after stopping the reaction with 25% H2SO4.

[10] = one value per residue with Δδnorm > 0.08 ppm (residue named left of the cell), Int. Ex. = intermediate exchange
[11] = Dissociation constant Kd (averaged Kd app), NMR, average of all analysable residues with CSPs > 0.08 ppm, ± standard deviation
[12] = Kd per residue, one value per residue with Δδnorm > 0.08 ppm (residue named left of the cell), Int. Ex. = intermediate exchange
[13] = NMR, average of all analysable residues with CSPs > 0.08 ppm, ± standard deviation
[14] = NMR, Bet v 1d, average of all analysable residues with CSPs > 0.08 ppm, ± standard deviation
[15] = NMR, average of all analysable residues with CSPs > 0.08 ppm, ± standard deviation, read-out: Dissociation constant Kd (averaged Kd app)

T1 sequence (P15494 whole entry): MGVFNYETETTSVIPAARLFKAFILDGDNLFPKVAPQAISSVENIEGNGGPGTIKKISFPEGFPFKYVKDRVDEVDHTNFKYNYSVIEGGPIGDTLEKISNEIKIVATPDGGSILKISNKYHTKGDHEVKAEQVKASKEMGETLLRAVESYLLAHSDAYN
T2 sequence (P43186 whole entry): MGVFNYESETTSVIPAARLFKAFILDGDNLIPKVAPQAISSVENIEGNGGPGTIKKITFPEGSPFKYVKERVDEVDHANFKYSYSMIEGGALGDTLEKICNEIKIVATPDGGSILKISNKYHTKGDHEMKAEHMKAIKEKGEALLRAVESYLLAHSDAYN
T3 sequence (P43177 whole entry): as the sequence (P15494 whole entry) above, with T8I, F31V, S58N, I92V, S113C, I114V, D126N counted along it

Row | Structure (SMILES) | Kd per residue [1, 10] | Kd [1, 11] | Kd [1, 12] | Kd [3] [µM] | Absorption maxima, Bet v 1d:Flavonoid [3] [nm] | Kd [4, 11] [µM] | Kd per residue [4, 10] | Absorption maxima, Flavonoid [5] [nm] | Kd ([6]; Bet v 1a) [µM] | Absorption maxima, Bet v 1a:Flavonoid [6] [nm] | binding to Bet v 1a (in words) [1] | binding to Bet v 1m (in words) [8] | binding to Bet v 1d (in words) [7] | Dissociation constant Kd (averaged Kd app) [7, 14] | influence of ligand on IgE binding of Bet v 1 isoforms [9] | other results
1 | O=c1c(O)c(-c2ccc(O)c(O)c2)oc2cc(O)ccc12 [Fisetin, fisetin] | Int. Ex. | 37.2 ± 6.5 µM | 18.2 µM and 39.4 µM and 72.5 µM and 16.1 µM and 53.5 µM and 48 µM and 36.8 µM and 18.6 µM and 28.6 µM and 17.4 µM and 16.8 µM | 13.9 ± 2.1 | 371 | 85.1 ± 21.7 | Int. Ex. | 368 | 14.3 ± 1.1 | 372 | – | – | – | – | – | Kd [2]: 68.6 ± 12.4 µM; Absorption maxima, Bet v 1m:Flavonoid [2]: 370 nm; Kd [4, 12]: 150 µM and 28.9 µM and 109 µM and 111 µM and 81.3 µM and 20.4 µM
2 | O=c1cc(-c2ccccc2)oc2ccccc12 [Flavone, flavone] | – | 67.1 ± 12.1 µM | – | – | – | 213 ± 36.6 | – | 302 | – | – | – | – | – | – | – | Kd ([7]; Dissociation constant Kd (averaged Kd app), NMR, Bet v 1d, average of all analysable residues with CSPs > 0.08 ppm, ± standard deviation): 69.9 ± 14.8 µM
3 | O=C[C@H](O)[C@@H](O)[C@@H](O)[C@H](O)CO [Galactose, galactose] | – | – | – | – | – | – | – | – | – | – | no detectable affinity | no detectable affinity | no detectable affinity | No binding | – | Dissociation constant Kd (averaged Kd app) [1, 13]: No binding; Dissociation constant Kd (averaged Kd app) [4, 13]: No binding
4 | OC[C@H]1OC(O)[C@H](O)[C@@H](O)[C@@H]1O (stereo partly drawn) [Glucose, glucose] | – | – | – | – | – | – | – | – | – | – | no detectable affinity | no detectable affinity | no detectable affinity | No binding | – | Dissociation constant Kd (averaged Kd app) [1, 13]: No binding; Dissociation constant Kd (averaged Kd app) [4, 13]: No binding
5 | O=c1c(O)c(-c2cc(O)c(O)c(O)c2)oc2cc(O)cc(O)c12 [Myricetin, myricetin] | Int. Ex. | 14.6 ± 6.5 µM | 5 µM and 11.6 µM and 26.9 µM | 1.2 ± 0.2 | 382 | 99.3 ± 19.4 | Int. Ex. | 378 | 4.2 ± 0.7 | 387 | – | – | – | – | – | fold higher affinity than flavone ([3]; Bet v 1d): 60 fold; Kd [4, 12]: 75.3 µM and 161 µM and 24.4 µM and 88.5 µM and 126 µM and 120 µM; fold higher affinity than flavone ([6]; Bet v 1a): 15 fold
6 | O=C1C[C@@H](c2ccc(O)cc2)Oc2cc(O)cc(O)c21 [Naringenin, naringenin] | Int. Ex. | ~30 µM and 30 µM | – | 37.7 ± 6.4 | 325 | 22.1 ± 5.5 | Int. Ex. | 325 | 60.6 ± 3.2 | 325 | – | – | – | – | – | Kd [2]: 28.1 ± 0.8 µM; Absorption maxima, Bet v 1m:Flavonoid [2]: 322 nm; Kd [4, 12]: 8.2 µM and 13.6 µM and 19 µM and 39.6 µM and 27.1 µM
7 | O=c1c(O[C@@H]2O[C@H](CO)[C@H](O)[C@H](O)[C@H]2O)c(-c2ccc(O)c(O)c2)oc2cc(O)cc(O)c12 [Q3OGal, quercetin-3-O-galactoside] | Int. Ex. | – | – | – | – | – | Int. Ex. | 358 | – | – | high affinity; also recorded: strong | High affinity | Weak affinity; also recorded: did not produce significant CSPs | No binding | did not modify IgE-binding | Kd [1, 15]: < 5 µM; Kd [4, 15]: < 5 µM
8 | O=c1c(O[C@@H]2O[C@H](CO)[C@@H](O)[C@H](O)[C@H]2O)c(-c2ccc(O)c(O)c2)oc2cc(O)cc(O)c12 [Q3OGlc, quercetin-3-O-glucoside] | Int. Ex. | 288 µM | 357 µM and 259 µM and 285 µM and 252 µM | – | – | < 5 | Int. Ex. | 364 | – | – | weak | High affinity; also recorded: strongly binds | Weak affinity; also recorded: did not produce significant CSPs | No binding | did not modify IgE-binding | –
9 | O=c1c(O)c(-c2ccc(O)c(O)c2)oc2cc(O)cc(O)c12 [Quercetin, quercetin] | Int. Ex. | 31.4 ± 10.3 µM | 69.1 µM and 36.8 µM and 11.1 µM and 21.6 µM and 18.6 µM | 10.2 ± 1 | 382 | 65.8 ± 8.2 | Int. Ex | 377 | 9.2 ± 0.6 | 382 | – | – | – | – | did not modify IgE-binding | Kd [2]: 26.5 ± 1.5 µM; Absorption maxima, Bet v 1m:Flavonoid [2]: 381 nm
10 | C[C@@H]1O[C@@H](OC[C@H]2O[C@@H](Oc3c(-c4ccc(O)c(O)c4)oc4cc(O)cc(O)c4c3=O)[C@H](O)[C@@H](O)[C@@H]2O)[C@H](O)[C@H](O)[C@H]1O [rutin] | – | – | – | – | – | – | – | – | – | – | – | – | – | – | did not modify IgE-binding | –
11 | OC[C@H]1O[C@@H](O[C@H]2C(O)O[C@H](CO)[C@@H](O)[C@@H]2O)[C@H](O)[C@@H](O)[C@@H]1O (stereo partly drawn) [sophorose] | – | – | – | – | – | – | – | – | – | – | – | – | – | – | did not modify IgE-binding | –
